Laboratory results as given in patent publication US20250144125A1 (priority 2021, published 2025).
Several values for one entry are separate records, joined by “and”; a condition that tells them apart may be missing. Equal entries are not always repeated. Where two headings read alike, the source gives them in different places.

How the values were obtained:
[1] = tested on: yellow fever virus (YFV 17D strain); test: microbe, parasite or virus in culture; assay type: cell-based
[2] = tested on: measles virus (CC strain); test: microbe, parasite or virus in culture; assay type: cell-based
[3] = tested on: influenza A (H1N1) virus (California/07/2009 strain); test: microbe, parasite or virus in culture; assay type: cell-based; conditions: read-out: EC50 California/07/2009 strain
Vero 76 cells = conditions: read-out: MERS-CoV CC50 Vero 76, MERS-CoV screen
[4] = tested on: tacaribe virus (TRVL11573 strain); test: microbe, parasite or virus in culture; assay type: cell-based; conditions: read-out: Tacaribe virus EC50 TRVL 11573 strain
MERS-CoV (EMC strain) = test: microbe, parasite or virus in culture; assay type: cell-based
[5] = tested on: chikungunya virus (S27 strain); test: microbe, parasite or virus in culture; assay type: cell-based
HG23 Nov replicon cells = test: Cytotoxicity in the human norovirus replicon assay (HG23 cells); conditions: read-out: CC50 human norovirus assay
[6] = tested on: enterovirus-71 (Tainan/4643/98 strain); test: Secondary assay (virus yield reduction / neutral red CPE) against enterovirus-71 in Vero 76 cells; assay type: cell-based
[7] = tested on: human norovirus genogroup I NoV (Norwalk virus replicon) in HG23 cells; test: Human norovirus antiviral assay, qRT PCR in HG23 NoV replicon cells; assay type: cell-based; conditions: HG23 Nov replicon cells, qRT PCR intracellular RNA, read-out: EC50 human norovirus
[8] = tested on: enterovirus-71 (Tainan/4643/98 strain); test: organism not typed; assay type: cell-based
[9] = tested on: dengue virus 2 (New Guinea C strain); test: microbe, parasite or virus in culture; assay type: cell-based
in vitro [10] = conditions: human, CC50
in vitro [11] = conditions: African green monkey
in vitro [12] = conditions: African green monkey, Tacaribe virus CC50 Vero
MDCK cells = conditions: dog
[13] = Cytotoxicity in the human norovirus replicon assay (HG23 cells); conditions: human, HG23 Nov replicon cells
in vitro [14] = conditions: dog, CC50 MDCK
HCV = conditions: literature; read-out: EC50 against HCV (RNA replication); cited from earlier work
[15] = read-out: Yellow fever virus EC50 YFV 17D strain
[16] = read-out: Measles EC50 CC strain
[17] = read-out: EC50 chikungunya virus
[18] = read-out: Yellow fever virus CC50 Huh7, Neutral Red, YFV screen
[19] = read-out: Yellow fever virus CC50 Huh7, Visual, YFV screen
[20] = Vero 76, read-out: EC50 enterovirus-71

OC[C@H]1O[C@@H](n2ccc3c(C#CC4CCCC4)ncnc32)[C@H](O)[C@@H]1O [3.1g, 6-(Cydopentylethynyl)-9-β-D-ribofuranosyl-7-deazapurine]
EC50 [1, 15]: 0.86 µM and 1.3 µM | CC50 (Vero cells): 34 µM | EC50 [2, 16]: 3.3 µM and 2.8 µM | EC50 [3]: > 8.4 µM | CC50 (Vero 76 cells; Neutral Red): 49 µM | CC50 (Vero 76 cells; Visual): 100 µM | EC50 [4]: 0.37 µM | activity against MERS-CoV in words (MERS-CoV (EMC strain)): moderately active with low selectivity index | EC50 [5, 17]: > 100 µM | CC50 (HG23 Nov replicon cells): 25.8 µM | EC50 ([6]; Neutral Red (Cytopathic effect/Toxicity)): 3.8 µM | EC90 ([6]; Visual (Virus yield reduction)): 1.1 µM | CC50 (Huh7 cells; [18]): 6 µM | CC50 (Huh7 cells; [19]): 8.6 µM | EC50 [7]: 0.438 µM | EC50 ([8]; read-out: EC50 enterovirus-71): 1.5 µM

OC[C@H]1O[C@@H](n2ccc3c(C#Cc4ccc(Cl)cc4)ncnc32)[C@H](O)[C@@H]1O [3.1j, 6-((4-Chlorophenyl)ethynyl)-9-β-D-ribofuranosyl-7-deazapurine]
EC50 ([1]; Yellow fever virus, Huh-7, read-out: Yellow fever virus EC50 YFV 17D strain): 1.2 µM | EC50 [1, 15]: 0.8 µM | EC50 ([9]; Dengue virus, Huh-7, read-out: EC50 dengue virus 2): 1.1 µM | EC50 ([9]; read-out: EC50 dengue virus 2): 1 µM | CC50 (Vero cells; African green monkey): 6.5 µM | EC50 ([2]; Measles morbillivirus, Vero 76, read-out: Measles EC50 CC strain): 3.2 µM | EC50 [2, 16]: 3.3 µM | CC50 (in vitro [10]): 12 µM | EC50 ([3]; Influenza A virus, H1N1, MDCK): > 2.4 µM | EC50 [3]: > 3.2 µM | CC50 (in vitro [11]; MERS-CoV CC50 Vero 76): 32 µM | CC50 (in vitro [11]; Measles CC50 Vero 76): 12 µM | EC50 ([4]; Mammarenavirus tacaribeense, Vero): > 8.6 µM | EC50 [4]: > 6.5 µM | EC50 (MERS-CoV (EMC strain); Middle East respiratory syndrome-related coronavirus, Vero 76, read-out: MERS-CoV EC50 EMC strain): > 32 µM | CC50 (in vitro [12]): 8.6 µM | EC50 ([5]; Chikungunya virus, Vero 76, read-out: EC50 chikungunya virus): > 32 µM | EC50 [5, 17]: > 23 µM | CC50 (MDCK cells): 3.2 µM | CC50 at 3 days [13]: 38.6 µM | CC50 (in vitro [14]): 2.4 µM | CC50 (Huh7 cells; human): 13 µM | CC50 (Huh7 cells; [18]): 5 µM | CC50 (Huh7 cells; [19]): 28 µM | EC50 ([7]; Norwalk virus): 0.022 µM | EC50 [8, 20]: > 32 µM | EC50 ([8]; read-out: EC50 enterovirus-71): > 31 µM

C[C@@]1(O)[C@H](O)[C@@H](CO)O[C@H]1n1ccc2c(N)ncnc21 [7-Deaza-2′-C-methyladenosine]
EC50 (HCV): 0.25 µM

C[C@@]1(O)[C@H](O)[C@@H](CO)O[C@H]1n1cc(F)c2c(N)ncnc21 [7-fluoro-7-deaza-2′-C-methyladenosine]
EC50 (HCV): 0.07 µM

CCOC(=O)c1ccc(OCCC2CCN(c3ccc(C)nn3)CC2)cc1 [Pirodavir, pirodavir, reference compound]
CC50 (in vitro [11]; CC50): > 27 µM | EC50 ([6]; Vero 76, Neutral Red (Cytopathic effect/Toxicity)): 0.35 µM | EC90 ([6]; Vero 76, Visual (Virus yield reduction)): 0.46 µM | EC50 [8, 20]: 0.4 µM | EC50 ([8]; read-out: EC50 enterovirus-71): 0.27 µM
